These results are taken from US6723742B2, “Substituted 3,5-diphenyl-1,2,4-triazoles and their use as pharmaceutical metal chelators” (Novartis AG., priority 1996, dated 2004).

Each structure is given as a SMILES string.

The first test relates to iron-overloaded marmosets (Callithrix jacchus). Description: Test II: iron excretion induced in iron-overloaded marmosets (urine and feces iron). In kind it is in vivo. As to conditions: iron-overloaded marmoset, p.o., dose 110.5 mg/kg; 48 h after administration, pretreatment subtracted; one line per animal. The procedure: Test II: Iron Excretion Induced by Compounds of Formula I or II [Method as Described in Bergeron et al., Blood 81:2166-2173 (1993)]
Adult (1 to 11 years old) marmosets (Callithrix jacchus) of both sexes, weighing 300 to 450 g are kept in pairs at 24-27° C. and a relative humidity of at least 60% in a 12-hour light-dark cycle. The animals are maintained on a pellet diet (No. 962 Nafag, Gossau, Switzerland) supplemented with fruit-vegetable mash, enriched with a vitamin-minerals concentrate (No. 9628 Nafag) and milk. Water is available ad libitum.
Iron-overloading procedure: The animals are iron-overloaded by 3 i.p. injections of iron (III) hydroxide polyisomaltose (Anaemex, Ciba-Geigy, Basel, Switzerland) at 14-day intervals (200 mg/kg twice and 100 mg/kg at the third injection). Prior to the first exposure to an iron chelator, the marmosets are rested at least 8 weeks.
Chelators administration: The test compounds are dispersed in 40 % aqueous Cremophor RH 40 (BASF, Ludwigshafen, Germany) for administration. The applied volume is 5 ml/kg body weight.
Iron excretion studies: The monkeys receive a low-iron diet 7 days before and throughout the experiments (4 days). The diet is prepared by mixing 628.9 g of a liquid diet for primates (Nafag No. 9694), 83 g of the corresponding lipid mixture (Nafag No. 9696), 131.3 g dietary fiber (Sanacell, Nafag) and 1.0 L of distilled water. […]
On to `COCCNC(=O)Cn1nc(-c2ccccc2O)nc1-c1ccccc1O` [Example 25, 2-[3,5-Bis(2-hydroxyphenyl)-[1,2,4]triazol-1-yl]-N-(2-methoxyethyl)acetamide], for which the “induced iron in feces” value turned out to be 163.2 µg/kg.

For the next test, the system named is Male Sprague-Dawley rats. Briefly: Test I: iron excretion induced in bile duct-cannulated rats (bile and urine iron, bathophenanthroline method). In kind it is in vivo. As to conditions: bile duct-cannulated fasted rat; dose 100 mg/kg; bile and urine collected for 24 h. The procedure: Test I: Iron Excretion Induced by Compounds of Formula I or II [Method as Described in Bergeron et al., J. Med. Chem. 34:2072-2078 (1991)]
Male Sprague-Dawley rats averaging 400 g are housed in Nalgene plastic metabolic cages and are given free access to water. The animals are anesthetized with sodium pentobarbital (50 mg/kg), given ip. The bile duct is cannulated with 22 gauge PE 50 tubing which is inserted ca. 2 cm into the duct and tied firmly in place. A skin-tunneling needle is inserted from the shoulder area around the abdominal incision. The cannula is threaded through the needle until it emerges from the shoulder opening. The cannula is then passed from the animal to the swivel inside a metal torque-transmitting tether, which is attached to a rodent jacket. The cannula is directed from the animal to a Gilson microfraction collector by a fluid swivel mounted above the metabolic cage. This system allows the animal to move freely in the cage while continuous bile samples are being collected. Bile samples are collected in plastic disposable tubes at 3 h intervals for 24 h. Urine samples are collected in plastic disposable tubes for 24 h.
Compounds of formula I or II are prepared in 60 % water, 40 % Cremophor RH-40 (v/v).
All animals are fasted for 48 h before the administration of the compound of formula I or II and the fast is maintained throughout the course of the experiment.
The iron indicator solution, solution A, is prepared by diluting a stock aqueous solution of 0.134 mM mercaptoacetic acid and 1.9 mM bathophenanthrolinedisulfonic acid disodium salt with 5 parts water and 5 parts saturated aqueous sodium acetate. Solution B is prepared as above but without the bathophenanthroline.
An equal volume of a 10 % trichloroacetic acid solution in 3 M HCl (solution C) is added to a urine sample (2.5 ml), and the sample heated in a 65° C. bath for 4 h. After filtration through nylon filters, two 1 ml aliquots are removed. Solution A (5 ml) is added to the sample, and solution B (5 ml) is added to the blank. Bile samples are prepared as the urine samples; however, the volumes are reduced. Standard iron curves are generated with each assay. All samples are transferred to polystyrene cuvettes and the absorbance measured at 535 nm.
Compounds of formula I or II are effective in this assay when administered at a dose in the range of from 10 to 200 mg/kg, e.g. 100 to 150 mg/kg. The induced total iron excretion is in the range of about 10 to 1500 μg Fe/kg body weight, e.g. 90 to 1000 μg Fe/kg body weight.
Turning to `O=C(Cn1nc(-c2ccccc2O)nc1-c1ccccc1O)NC(CO)CO` [Example 31, 2-[3,5-Bis(2-hydroxyphenyl)-[1,2,4]triazol-1-yl]-N-(2-hydroxy-1-hydroxymethyl-ethyl)acetamide], the “induced total iron excretion” value was 175 μg Fe/kg body weight.
Same read-out and setting: next, `CCOC(=O)Cn1nc(-c2ccccc2O)nc1-c1ccccc1O` [Example 2, Ethyl [3,5bis(2-hydroxyphenyl)-[1,2,4]triazol-1-yl]acetate]: 91 μg Fe/kg body weight.
Still for that read-out and setting: the figure for `O=C(Cn1nc(-c2ccccc2O)nc1-c1ccccc1O)NCCN(CCO)CCO` [Example 30, N-{2-[Bis(2-hydroxyethyl)amino]ethyl}-2-[3,5-bis(2-hydroxyphenyl)-[1,2,4]triazol-1-yl]acetamide] is 447 μg Fe/kg body weight; for `O=C(Cn1nc(-c2ccccc2O)nc1-c1ccccc1O)NCC(O)CO` (stereo not drawn) [Example 26, 2-[3,5-Bis(2-hydroxyphenyl)-[1,2,4]triazol-1-yl]-N-(2,3-dihydroxypropyl)-acetamide] it is 171 μg Fe/kg body weight; for `OCCn1nc(-c2ccccc2O)nc1-c1ccccc1O` [Example 1, 3,5-Bis(2-hydroxyphenyl)-1-(2-hydroxyethyl)-1H-[1,2,4]triazole] it is 368 μg Fe/kg body weight.
The same measure, in the same setting: next, `O=C(O)c1ccc(-n2nc(-c3ccccc3O)nc2-c2ccccc2O)cc1` [Example 5, 4-[3,5-Bis(2-hydroxyphenyl)-[1,2,4]triazol-1-yl]benzoic acid]: 659 μg Fe/kg body weight.
As to `CN(CCO)C(=O)Cn1nc(-c2ccccc2O)nc1-c1ccccc1O` [Example 28, 2-[3,5-Bis(2-hydroxyphenyl)-[1,2,4]triazol-1-yl]-N-(2-hydroxyethyl)-N-methyl-acetamide], the “induced total iron excretion” value is 413 μg Fe/kg body weight.
As for `O=C(Cn1nc(-c2ccccc2O)nc1-c1ccccc1O)NCCO` [Example 24, 2-[3,5bis(2-hydroxyphenyl)-(1,2,4]triazol-1-yl]-N-(2-hydroxyethyl)acetamide], the “induced total iron excretion” value was 413 μg Fe/kg body weight.
Still for that read-out and setting: next, `O=C(Cn1nc(-c2ccccc2O)nc1-c1ccccc1O)NCCN1CCOCC1` [Example 27, 2-[3,5-Bis(2-hydroxyphenyl)-[1,2,4]triazol-1-yl]-N-(2-morpholin-4-yl-ethyl)-acetamide]: 451 μg Fe/kg body weight; `O=C(Cn1nc(-c2ccccc2O)nc1-c1ccccc1O)N1CCOCC1` [Example 34, 2-[3,5-Bis(2-hydroxyphenyl)-[1,2,4]triazol-1-yl]-l-morpholin-4-ylethanone]: 204 μg Fe/kg body weight.
Still for that read-out and setting: the figure for `O=C(O)Cn1nc(-c2ccccc2O)nc1-c1ccccc1O` [Example 22, [3,5-Bis(2-hydroxyphenyl)-[1,2,4]triazol-1-yl]acetic acid] is 147 μg Fe/kg body weight; for `O=C(Cn1nc(-c2ccccc2O)nc1-c1ccccc1O)NCCOCCO` [Example 29, 2-[3,5-Bis(2-hydroxyphenyl)-[1,2,4]triazol-1-yl]-N-[2-(2-hydroxyethoxy)ethyl]-acetamide] it is 359 μg Fe/kg body weight.
With `O=C(Cn1nc(-c2ccccc2O)nc1-c1ccccc1O)N(CCO)CCO` [Example 37, 2-[3,5-Bis(2-hydroxyphenyl)-[1,2,4]triazol-1-yl]-N,N-bis(2-hydroxyethyl)-acetamide], the “induced total iron excretion” value came to 301 μg Fe/kg body weight.
On the same count and under the same terms, next, `CN(C)C(=O)Cn1nc(-c2ccccc2O)nc1-c1ccccc1O` [Example 33, 2-[3,5-Bis(2-hydroxyphenyl)-[1,2,4]triazol-1-yl]-N,N-dimethylacetamide]: 282 μg Fe/kg body weight.
On the same count and under the same terms, the figure for `COCCNC(=O)Cn1nc(-c2ccccc2O)nc1-c1ccccc1O` [Example 25, 2-[3,5-Bis(2-hydroxyphenyl)-[1,2,4]triazol-1-yl]-N-(2-methoxyethyl)acetamide] is 337 μg Fe/kg body weight.

The test is the same for the next values; noted with them: bile duct-cannulated fasted rat; dose 118 mg/kg; bile and urine collected for 24 h.
On to `CN1CCN(C(=O)Cn2nc(-c3ccccc3O)nc2-c2ccccc2O)CC1` [Example 35, 2-[3,5-Bis(2-hydroxyphenyl)-[1,2,4]triazol-1-yl]-1-(4-methylpiperazin-1-yl)-ethanone], for which the “induced total iron excretion” value worked out at 293 μg Fe/kg body weight.

The test is the same for the next values; noted with them: bile duct-cannulated fasted rat; dose 119 mg/kg; bile and urine collected for 24 h.
`CN(C)CCN(C)C(=O)Cn1nc(-c2ccccc2O)nc1-c1ccccc1O` [Example 38, 2-[3,5-Bis(2-hydroxyphenyl)-[1,2,4]triazol-1-yl]-N-(2-dimethylaminoethyl)-N-methylacetamide]: the “induced total iron excretion” value came out at 970 μg Fe/kg body weight.

Still in this test, the particulars now being: bile duct-cannulated fasted rat; dose 120 mg/kg; bile and urine collected for 24 h.
Consider `Cc1ccc(O)c(-c2nc(-c3cc(C)ccc3O)n(-c3ccc(C(=O)O)cc3)n2)c1` [Example 21, 4-[3,5-Bis(2-hydroxy-5-methylphenyl)-[1,2,4]triazol-1-yl]benzoic acid], for which the “induced total iron excretion” value came out at 317 μg Fe/kg body weight.

Still in this test, the particulars now being: bile duct-cannulated fasted rat; dose 133 mg/kg; bile and urine collected for 24 h.
Take `O=C(c1ccc(-n2nc(-c3ccccc3O)nc2-c2ccccc2O)cc1)N1CCOCC1` [Example 6, {4-[3,5-Bis(2-hydroxyphenyl)-[1,2,4]triazol-1-yl]-phenyl}morpholin-4-yl-methanone]: the “induced total iron excretion” value is 968 μg Fe/kg body weight.
Take `O=C(O)c1ccc(-n2nc(-c3cc(Cl)ccc3O)nc2-c2cc(Cl)ccc2O)cc1` [Example 17, 4-[3,5-Bis(5-chloro-2-hydroxyphenyl)-[1,2,4]triazol-1-yl]benzoic acid]: the “induced total iron excretion” value is 203 μg Fe/kg body weight.
